These results are taken from ChEMBL document CHEMBL2331330, “Substituted piperidinyl glycinyl 2-cyano-4,5-methano pyrrolidines as potent and stable dipeptidyl peptidase IV inhibitors” (Bioorg Med Chem Lett, 2013).

The structures appear in SMILES notation.

What is called Ki is a measure of affinity in units of concentration, obtained from inhibition or displacement. Low values mean higher affinity, high ones lower affinity. Broadly, the half-life is how long it takes for the measured level to halve. Read a low half-life as rapid decline.

One data set has as its target Dipeptidyl peptidase 4 (Homo sapiens, UniProt P27487). Description: Inhibition of human DPP4 using gly-pro-para-nitroanilide as substrate.
A short description of data set [1]: Degradation half life of the compound at 10 mM at pH 7.2. The class given is physicochemical. The following applies: buffer.
Data set [2] is described as follows: Degradation half life of the compound at 30 mM at pH 7.2. As to conditions: buffer. In kind it is physicochemical.
A short description of data set [3]: Degradation half life of the compound at 50 mM at pH 7.2. In kind it is physicochemical. The following applies: buffer.

Sequence of Dipeptidyl peptidase 4 (P27487 whole entry): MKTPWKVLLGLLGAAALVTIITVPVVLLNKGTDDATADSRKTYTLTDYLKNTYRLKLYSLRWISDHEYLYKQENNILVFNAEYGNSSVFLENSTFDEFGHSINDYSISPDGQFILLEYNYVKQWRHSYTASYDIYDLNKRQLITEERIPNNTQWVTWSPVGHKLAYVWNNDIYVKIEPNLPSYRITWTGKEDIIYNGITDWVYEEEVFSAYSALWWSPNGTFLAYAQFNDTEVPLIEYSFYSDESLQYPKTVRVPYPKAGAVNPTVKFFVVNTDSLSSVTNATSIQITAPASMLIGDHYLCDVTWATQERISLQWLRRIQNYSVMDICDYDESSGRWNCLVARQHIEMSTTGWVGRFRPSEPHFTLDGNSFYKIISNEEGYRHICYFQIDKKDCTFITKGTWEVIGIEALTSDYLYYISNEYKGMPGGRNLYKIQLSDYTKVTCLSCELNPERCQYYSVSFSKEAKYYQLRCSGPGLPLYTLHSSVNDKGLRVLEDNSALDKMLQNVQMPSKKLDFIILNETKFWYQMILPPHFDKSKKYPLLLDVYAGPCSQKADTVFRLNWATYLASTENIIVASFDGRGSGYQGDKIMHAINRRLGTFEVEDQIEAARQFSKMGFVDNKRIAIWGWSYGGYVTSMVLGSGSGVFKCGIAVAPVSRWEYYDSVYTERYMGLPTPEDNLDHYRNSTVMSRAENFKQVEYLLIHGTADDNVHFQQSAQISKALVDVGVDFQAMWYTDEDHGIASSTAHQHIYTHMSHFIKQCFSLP

On Dipeptidyl peptidase 4, `N#C[C@@H]1C[C@@H]2C[C@@H]2N1C(=O)[C@@H](N)C1CCN(S(=O)(=O)c2cccc3ccccc23)CC1` yielded a Ki of 13 nM. This counts as double-digit nanomolar.

In turn, `CC(C)(C)CC(=O)N1CCC([C@H](N)C(=O)N2[C@H](C#N)C[C@@H]3C[C@@H]32)CC1` gave a half-life at 10000 µM in data set [1] of 48 h. The molecule further gave a half-life at 30000 µM in data set [2] of 38.4 h. The molecule further had a half-life at 50000 µM in data set [3] of 38.4 h.

In data set [1], `CCC1([C@H](N)C(=O)N2[C@H](C#N)C[C@@H]3C[C@@H]32)CCN(C(=O)CC(C)(C)C)CC1` showed a half-life at 10000 µM of 473 h. For the same molecule, the half-life at 30000 µM in data set [2] was 245 h. Further, the half-life at 50000 µM in data set [3] was 192 h.

For the molecule `N#C[C@@H]1C[C@@H]2C[C@@H]2N1C(=O)[C@@H](N)C1CCN(C(=O)Cc2ccccc2)CC1`, on Dipeptidyl peptidase 4, the affinity corresponds to a Ki of 18 nM. This lies in the double-digit nanomolar range.
